Experiments:
[1] = tested on: phosphorylated mTOR (p-mTOR); test: Phosphorylation of mTOR in iRS cells; assay type: cell-based, human; settings: addition to conditioned medium, vs DMSO control
Protocol: (§1) CM is conditioned medium.
iRS cells were plated at a high density (1×10^6 cells) on a 3 cm dish coated with Matrigel, 0.5 mM VPA was added to the MEF-conditioned medium and culture was continued. […] Phosphorylation of mTOR then was measured.

iRS cells = test: Conversion of iRS cells to DsRed-negative (pluripotent) cells in high-density culture; assay type: cell-based, human; settings: 0.5 mM added to MEF-conditioned medium, high-density culture (1×10^6 cells, 3 cm dish), day 6 after plating
Protocol: as §1
The iRS cells were plated at a high density (1×10^6 cells) on a 3 cm dish coated with Matrigel, and culture was continued in a MEF-conditioned medium. From day 3, DsRed-negative cells were occasionally found, and DsRed-negative cell clump could be confirmed on day 6. On day 10, ES cell-like colony could be confirmed (FIG. 3A). The expression levels of exogenous OCT4 and SOX2 at that time were confirmed by quantitative PCR. Expression of exogenous gene disappeared on day 6 of high-density culture, and re-expression was void thereafter (FIG. 3B). Furthermore, the expression levels of the endogenous OCT4, TDGF1 and ECAD were confirmed by quantitative PCR. As a result, expression of these pluripotent marker genes was confirmed (FIG. 3C). Similarly, the mRNA expression levels of other pluripotent marker genes were confirmed on a heat map. As a result, mostly similar gene expression profiles were confirmed on day 6 and day 10 (FIG. 3D). Moreover, SSEA4 and ECAD, which are surface antigen markers showing pluripotency, were tested by an immunostaining method. As a result, both surface antigens could be recognized from day 6 (FIG. 3E). […]
iRS cells were plated at a high density (1×10^6 cells) on a 3 cm dish coated with Matrigel, 0.5 mM VPA was added to the MEF-conditioned medium and culture was continued. […] Phosphorylation of mTOR then was measured. […]

**Q.** Which “amount of phosphorylated mTOR (p-mTOR)” value [1] does the source give for `CCCC(CCC)C(=O)[O-].[Na+]` [VPA, sodium valproate] here?
**A.** increased

**Q.** And the “conversion rate to DsRed-negative cells” value (iRS cells)?
**A.** strikingly high
